In this experiment the test system is 186277-243-T-J2-PDC complex spheroid viability. The experiment is described as follows: Anticancer human tumor 186277-243-T-J2-PDC patient-derived colon adenocarcinoma cell line growth inhibition [POLQ]. The note with it: for viability, T/C: stronger effect = lower value. A digest of the protocol: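 Patient-derived tumour cells were co-cultured with HUVEC and mesenchymal stem cells as multicellular spheroids at 37 °C. They were treated with POLQ inhibitors (novobiocin, ART-558, RP6685) alone or combined with other agents. Top concentrations were at or near clinical Cmax (otherwise 10 microM; SN-38 at 1 microM), decreasing in half-log steps.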

Several values for one entry are separate records, joined by “and”; a condition that tells them apart may be missing. Equal entries are not always repeated.
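Further: spheroids exposed to compounds for seven days.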
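Wherever viability, T/C is given: 100% = DMSO vehicle control viability.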

For `COc1cc(C2c3cc4c(cc3C(OC3OC5COC(C)OC5C(O)C3O)C3COC(=O)C23)OCO4)cc(OC)c1O` (stereo not drawn) + Cc1cccc(N(C)C(=O)C2C(O)CCN2c2nc(C)cc(C(F)(F)F)c2C#N)c1, the IC50 (curve of first compound, second compound 0.0316 µM) was found to be 1030 nM; the IC50 (curve of first compound, second compound 0.1 µM) was determined as 890 nM; the half-maximal inhibitory concentration (IC50) (curve of first compound, second compound 0.316 µM) was 1070 nM; the IC50 (curve of first compound, second compound 1 µM) came out at 976 nM; the IC50 (curve of first compound, second compound 3.16 µM) was found to be 749 nM; the IC50 (curve of first compound, second compound 10 µM) is 528 nM. For the same compound, the viability, T/C was 102% (second compound 0.0316 µM, first compound 0.0316 µM); 104% (second compound 0.0316 µM, first compound 0.1 µM); 79.3% (second compound 0.0316 µM, first compound 0.316 µM); 48.8% (second compound 0.0316 µM, first compound 1 µM); 30.6% (second compound 0.0316 µM, first compound 3.16 µM); 14.3% (second compound 0.0316 µM, first compound 10 µM). For the same compound, the viability, T/C (second compound 0.1 µM, first compound 0.0316 µM) is 106%; the viability, T/C (second compound 0.1 µM, first compound 0.1 µM) is 117%; the viability, T/C (second compound 0.1 µM, first compound 0.316 µM) was 76%; the viability, T/C (second compound 0.1 µM, first compound 1 µM) was 47.5%; the viability, T/C (second compound 0.1 µM, first compound 3.16 µM) is 29.2%; the viability, T/C (second compound 0.1 µM, first compound 10 µM) is 14.4%. For the same compound, the viability, T/C was 105% (second compound 0.316 µM, first compound 0.0316 µM); 99.2% (second compound 0.316 µM, first compound 0.1 µM); 80.5% (second compound 0.316 µM, first compound 0.316 µM); 48.4% (second compound 0.316 µM, first compound 1 µM); 31.7% (second compound 0.316 µM, first compound 3.16 µM); 14.5% (second compound 0.316 µM, first compound 10 µM). Besides, the viability, T/C is 93.8% (second compound 1 µM, first compound 0.0316 µM); 115% (second compound 1 µM, first compound 0.1 µM); 80.7% (second compound 1 µM, first compound 0.316 µM); 46% (second compound 1 µM, first compound 1 µM); 36.1% (second compound 1 µM, first compound 3.16 µM); 12.7% (second compound 1 µM, first compound 10 µM). For the same compound, the viability, T/C runs as follows: (second compound 3.16 µM, first compound 0.0316 µM) 105%; (second compound 3.16 µM, first compound 0.1 µM) 124%; (second compound 3.16 µM, first compound 0.316 µM) 66.7%; (second compound 3.16 µM, first compound 1 µM) 46.6%; (second compound 3.16 µM, first compound 3.16 µM) 27.2%; (second compound 3.16 µM, first compound 10 µM) 13.4%. The viability, T/C was 99.6% (second compound 10 µM, first compound 0.0316 µM); 106% (second compound 10 µM, first compound 0.1 µM); 57.2% (second compound 10 µM, first compound 0.316 µM); 37.6% (second compound 10 µM, first compound 1 µM); 23.3% (second compound 10 µM, first compound 3.16 µM); 12.2% (second compound 10 µM, first compound 10 µM).
With `CC(=O)O[C@H]1C(=O)[C@@]2(C)[C@H]([C@H](OC(=O)c3ccccc3)[C@]3(O)C[C@H](OC(=O)[C@H](O)[C@@H](NC(=O)c4ccccc4)c4ccccc4)C(C)=C1C3(C)C)[C@]1(OC(C)=O)CO[C@@H]1C[C@@H]2O`, the viability, T/C (compound 0.00949 µM) is 38.5% and 44.7% and 19.1%; the viability, T/C (compound 0.03 µM) is 10.6% and 11.3% and 5.03%; the viability, T/C (compound 0.0949 µM) was 7.36% and 7.77% and 3.51%; the viability, T/C (compound 0.3 µM) is 5.49% and 5.99% and 2.78%; the viability, T/C (compound 0.949 µM) was 5.37% and 6% and 2.77%; the viability, T/C (compound 3 µM) was 4.97% and 5.56% and 2.45%. Also, under “curve of compound”, the IC50 was under 9.49 nM.
Take `CC1COCCN1c1cc(C2(O)CC3CCC(C2)O3)c2cnn(-c3ccn[nH]3)c2n1` (stereo not drawn): the viability, T/C is 62.7% and 62.5% and 102% (compound 0.0316 µM); 11% and 9.46% and 22.4% (compound 0.1 µM); 5.2% and 4.15% and 9.01% (compound 0.316 µM); 4.03% and 3.64% and 7.13% (compound 1 µM); 4.12% and 3.11% and 9.4% (compound 3.16 µM); 4.18% and 3.19% and 7.62% (compound 10 µM). The IC50 (curve of compound) was 41.9 nM and 41.4 nM and 67.2 nM.
In the case of `CCc1cc2c(N3CCc4c(cc(Cn5ccnc5)cc4-c4cn(C)nc4C(F)(F)F)C3=O)ccnc2c(OC)n1`, the viability, T/C runs as follows: (compound 0.0316 µM) 103% and 94.2% and 101%; (compound 0.1 µM) 91.9% and 87.2% and 87.1%; (compound 0.316 µM) 88.2% and 90.2% and 95.8%; (compound 1 µM) 84.1% and 101% and 107%; (compound 3.16 µM) 87.8% and 103% and 101%; (compound 10 µM) 83.4% and 104% and 91.2%. The IC50 (curve of compound) was over 10000 nM.

By IC50 is commonly meant the concentration that inhibits the measured activity by half. For orientation: viability, T/C means the result in the treated group divided by that in the control group, in per cent.

The values above are taken from PubChem BioAssay AID1963854 (Molecular Pharmacology Branch, DTP, NCI, 2024).
